Results from ChEMBL document CHEMBL1641500, “Carbonic anhydrase inhibitors. Inhibition studies with anions and sulfonamides of a new cytosolic enzyme from the scleractinian coral Stylophora pistillata” (Bioorg Med Chem Lett, 2011).

Columns and labels:
[1] = biological target: T1, Alpha carbonic anhydrase (Stylophora pistillata, UniProt B5SU02)
T1 sequence (B5SU02 whole entry): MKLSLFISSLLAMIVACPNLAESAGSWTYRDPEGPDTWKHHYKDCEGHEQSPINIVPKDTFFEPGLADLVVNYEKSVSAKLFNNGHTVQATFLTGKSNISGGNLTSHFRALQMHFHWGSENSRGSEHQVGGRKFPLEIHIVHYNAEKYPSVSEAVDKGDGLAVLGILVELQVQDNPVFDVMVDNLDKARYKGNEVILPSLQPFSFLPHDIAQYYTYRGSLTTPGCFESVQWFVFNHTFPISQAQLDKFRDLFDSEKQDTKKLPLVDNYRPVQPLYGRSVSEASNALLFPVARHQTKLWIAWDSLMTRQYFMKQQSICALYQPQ

[2] = biological target: Carbonic anhydrase 6 (Homo sapiens, UniProt P23280)
Sequence of Carbonic anhydrase 6 (P23280 whole entry): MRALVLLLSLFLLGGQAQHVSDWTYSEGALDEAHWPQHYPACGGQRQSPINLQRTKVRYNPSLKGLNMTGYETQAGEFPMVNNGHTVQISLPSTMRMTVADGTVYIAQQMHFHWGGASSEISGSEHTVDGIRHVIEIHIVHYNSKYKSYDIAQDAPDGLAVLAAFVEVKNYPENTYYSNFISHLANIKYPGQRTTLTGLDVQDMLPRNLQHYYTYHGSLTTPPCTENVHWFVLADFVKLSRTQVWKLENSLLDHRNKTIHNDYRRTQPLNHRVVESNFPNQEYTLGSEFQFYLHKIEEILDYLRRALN

[3] = biological target: T2, Carbonic anhydrase (Stylophora pistillata, UniProt C0IX24)
T2 sequence (C0IX24 whole entry): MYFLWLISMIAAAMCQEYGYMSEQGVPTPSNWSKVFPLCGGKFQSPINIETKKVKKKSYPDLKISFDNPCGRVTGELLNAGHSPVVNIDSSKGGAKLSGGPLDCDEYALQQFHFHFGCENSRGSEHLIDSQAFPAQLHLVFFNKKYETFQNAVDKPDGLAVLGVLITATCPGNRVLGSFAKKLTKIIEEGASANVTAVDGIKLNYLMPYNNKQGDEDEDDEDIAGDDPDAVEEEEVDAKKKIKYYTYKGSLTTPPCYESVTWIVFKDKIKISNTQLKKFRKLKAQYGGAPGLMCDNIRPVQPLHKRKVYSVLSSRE

[4] = biological target: Carbonic anhydrase 1 (Homo sapiens, UniProt P00915)
Sequence of Carbonic anhydrase 1 (P00915 whole entry): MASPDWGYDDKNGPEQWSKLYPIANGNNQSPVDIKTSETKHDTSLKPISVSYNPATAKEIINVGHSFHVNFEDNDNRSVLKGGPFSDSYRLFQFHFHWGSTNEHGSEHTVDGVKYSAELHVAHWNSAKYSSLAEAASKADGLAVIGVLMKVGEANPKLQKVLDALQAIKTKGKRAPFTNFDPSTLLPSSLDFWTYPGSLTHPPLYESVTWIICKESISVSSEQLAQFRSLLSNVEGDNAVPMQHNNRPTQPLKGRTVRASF

Compound | Ki [1] | Ki [2] | Ki [3] | Ki [4]
O=S(O)O [SULFUROUS ACID] | 410 µM | 14200 µM | 430 µM | –
O=NO [NITROUS ACID] | 770 µM | 820 µM | 3150 µM | –
NS(=O)(=O)O [SULFAMATE] | 0.00081 µM | – | 8.5e-06 µM | 0.021 nM
Cl [HYDROCHLORIC ACID] | 500 µM | 720 µM | 530 µM | –
O=C1NS(=O)(=O)c2ccccc21 [SACCHARIN] | – | 0.935 µM | 0.104 µM | –
NS(N)(=O)=O [SULFAMIDE] | – | – | 5.7e-06 µM | –
NNc1ccccc1S(N)(=O)=O | – | – | 0.65 µM | –
CCN[C@H]1CN(CCCOC)S(=O)(=O)c2sc(S(N)(=O)=O)cc21 [BRINZOLAMIDE] | – | – | 0.169 µM | –
NS(=O)(=O)c1nnc(NS(=O)(=O)c2ccccc2)s1 [BENZOLAMIDE] | – | – | 0.214 µM | –
S1SSSSSSS1 [SULFUR] | 580 µM | 710 µM | 3940 µM | 600 nM
Nc1ccc(S(N)(=O)=O)cc1I | – | – | 0.695 µM | –
I [IODIDE] | 9 µM | 810 µM | 33000 µM | –
Cc1ccc(S(N)(=O)=O)cc1 [P-TOLUENESULFONAMIDE] | – | – | 0.516 µM | –
N#CO [CYANATE] | 590 µM | 690 µM | 690 µM | –
NCCc1ccc(S(N)(=O)=O)cc1 | – | – | 0.577 µM | –
Br [BROMIDE] | 9.7 µM | 730 µM | 960 µM | –
O=[N+]([O-])O [NITRIC ACID] | 560 µM | 760 µM | 990 µM | –
NS(=O)(=O)c1ccc(S(=O)(=O)Nc2cccc3c(Cl)c[nH]c23)cc1 | – | – | 0.394 µM | –
F [FLUORIDE ION] | 620 µM | 600 µM | 920 µM | –
OB(O)c1ccccc1 [PHENYLBORONIC ACID] | 0.00068 µM | 0.00082 µM | 8.1e-06 µM | 58.6 nM
Cc1ccc(-c2cc(C(F)(F)F)nn2-c2ccc(S(N)(=O)=O)cc2)cc1 [CELECOXIB] | – | – | 0.69 µM | –
Nc1ccc(S(=O)(=O)NCCc2ccc(S(N)(=O)=O)cc2)cc1 | – | – | 0.902 µM | –
Nc1ccc(S(N)(=O)=O)cc1Br | – | – | 0.54 µM | –
NCc1ccc(S(N)(=O)=O)cc1 [MAFENIDE] | – | – | 0.508 µM | –
